Measured values as given in US20180147223A1 (priority 2016, published 2018).
Several values for one entry are separate records, joined by “and”; a condition that tells them apart may be missing. Equal entries are not always repeated.

What was measured:
BoNT/A = BoNT/A (Clostridium botulinum, UniProt P0DPI0); type: cell-based, C. botulinum
LC of BoNT/A = LC of BoNT/A (Clostridium botulinum, UniProt P0DPI0); experiment: biochemical; type: biochemical, C. botulinum
BoNT/A LC = BoNT/A LC (Clostridium botulinum, UniProt P0DPI0); experiment: biochemical; type: biochemical, C. botulinum; settings: for inhibition at 100 µM: read-out: % of Inhibition at 100 μM
[1] = target: recombinant light chain A (rLCA) (Clostridium botulinum, UniProt P0DPI0); experiment: biochemical; parameters: species or system C. botulinum
recombinant light chain A (rLCA), sequence (P0DPI0 2-448 limits assumed): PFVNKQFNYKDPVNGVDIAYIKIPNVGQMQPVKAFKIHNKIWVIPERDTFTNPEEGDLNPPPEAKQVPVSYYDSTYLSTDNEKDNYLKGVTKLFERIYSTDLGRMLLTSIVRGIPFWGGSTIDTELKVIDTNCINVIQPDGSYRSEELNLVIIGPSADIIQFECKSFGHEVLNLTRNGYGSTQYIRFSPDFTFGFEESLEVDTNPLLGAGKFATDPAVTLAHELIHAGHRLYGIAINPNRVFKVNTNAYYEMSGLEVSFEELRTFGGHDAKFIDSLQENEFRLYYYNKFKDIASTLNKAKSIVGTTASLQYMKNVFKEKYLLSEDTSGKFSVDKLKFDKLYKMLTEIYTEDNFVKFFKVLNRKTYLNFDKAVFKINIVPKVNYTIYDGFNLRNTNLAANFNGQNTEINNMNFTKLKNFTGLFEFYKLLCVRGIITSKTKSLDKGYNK

BoNT/A LC, sequence (P0DPI0 2-448 limits assumed): as above
LC of BoNT/A, sequence (P0DPI0 2-448 limits assumed): as above
BoNT/A, sequence (P0DPI0 whole entry, looked up): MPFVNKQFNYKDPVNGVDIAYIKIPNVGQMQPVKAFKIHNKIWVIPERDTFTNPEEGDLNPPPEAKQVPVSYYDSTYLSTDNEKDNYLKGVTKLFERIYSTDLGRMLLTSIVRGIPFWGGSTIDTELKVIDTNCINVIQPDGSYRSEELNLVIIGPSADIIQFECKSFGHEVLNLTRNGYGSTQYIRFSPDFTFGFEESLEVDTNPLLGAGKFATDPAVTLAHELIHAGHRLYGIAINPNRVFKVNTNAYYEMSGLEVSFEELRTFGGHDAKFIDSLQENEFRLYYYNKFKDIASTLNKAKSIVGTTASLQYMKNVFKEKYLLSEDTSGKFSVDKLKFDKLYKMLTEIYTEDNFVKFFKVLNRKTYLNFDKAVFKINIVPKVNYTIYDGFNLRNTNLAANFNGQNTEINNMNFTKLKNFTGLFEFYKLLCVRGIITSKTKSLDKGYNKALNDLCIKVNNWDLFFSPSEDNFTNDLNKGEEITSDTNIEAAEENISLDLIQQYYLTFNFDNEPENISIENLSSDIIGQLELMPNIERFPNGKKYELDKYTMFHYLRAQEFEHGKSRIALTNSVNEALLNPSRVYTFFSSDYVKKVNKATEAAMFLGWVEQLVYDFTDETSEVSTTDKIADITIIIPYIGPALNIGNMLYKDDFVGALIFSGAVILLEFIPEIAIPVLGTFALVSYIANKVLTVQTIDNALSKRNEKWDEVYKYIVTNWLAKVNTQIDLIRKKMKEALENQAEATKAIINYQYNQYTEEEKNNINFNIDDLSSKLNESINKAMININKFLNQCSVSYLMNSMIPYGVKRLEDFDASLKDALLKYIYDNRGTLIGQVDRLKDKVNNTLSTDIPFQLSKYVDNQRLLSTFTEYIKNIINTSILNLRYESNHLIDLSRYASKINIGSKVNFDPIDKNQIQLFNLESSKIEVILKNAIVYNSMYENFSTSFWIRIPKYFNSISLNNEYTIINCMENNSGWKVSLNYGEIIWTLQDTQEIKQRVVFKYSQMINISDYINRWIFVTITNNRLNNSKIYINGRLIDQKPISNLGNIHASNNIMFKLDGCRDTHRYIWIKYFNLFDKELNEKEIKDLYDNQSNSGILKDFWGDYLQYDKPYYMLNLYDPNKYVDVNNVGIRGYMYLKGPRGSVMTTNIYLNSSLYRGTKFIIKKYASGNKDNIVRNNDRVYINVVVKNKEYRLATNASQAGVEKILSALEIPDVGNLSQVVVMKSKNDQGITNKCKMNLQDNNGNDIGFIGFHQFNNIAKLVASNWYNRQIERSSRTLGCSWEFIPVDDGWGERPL

| Compound | inhibition of SNAP-25 cleavage by BoNT/A in M17 cells (BoNT/A) | inhibition of endogenous SNAP-25 cleavage in M-17-TR2 cells (BoNT/A) | Vmax (LC of BoNT/A) | type of inhibition (LC of BoNT/A) | α (LC of BoNT/A) | α′ (LC of BoNT/A) | Ki (LC of BoNT/A; Ki value) | IC50 (BoNT/A LC) | concentration at which near 100% inhibition (saturation) is reached (BoNT/A LC) | inhibition at 100 µM (BoNT/A LC) | IC50 [1] |
| --- | --- | --- | --- | --- | --- | --- | --- | --- | --- | --- | --- |
| O=c1ccc2cc3c(-c4ccc([N+](=O)[O-])cc4)coc3cc2o1 [Compound 1, 3-(4-nitrophenyl)-7H-furo[3,2-g][1]benzopyran-7-one] | showed inhibition | significantly inhibit | 2.064 RFU/s and 2.79 RFU/s and 2.55 RFU/s | non-competitive inhibition | 2.76 (±1.12) and 1.38 (±0.33) and 1.8 (±0.30) | 1.705 (±0.79) and 1.155 (±0.18) and 1.24 (±0.12) | 14.2 µM and 17.5 µM and 14.7 µM | 6.5 µM | about 81 μM | 100% | 10 µM |
| O=c1oc2c(O)c(O)cc3c(=O)oc4c(O)c(O)cc1c4c23 [Compound 2, 2,3,7,8-Tetrahydroxy-chromeno[5,4,3-cde]chromene-5,10-dione] | – | – | – | – | – | – | – | 0.65 ± 0.032 µM | – | 101% | 1.62 µM |
| O=C1C=C2CC3(O)COc4c(ccc(O)c4O)C3=C2C=C1O (stereo not drawn) [Compound 3, 3,4,6a, 10-Tetrahydroxy-6,7-dihydroindeno[2,1-c]chromen-9-one] | – | significantly inhibit | – | – | – | – | – | 2.97 ± 0.048 µM | – | 92.7% | 0.86 µM |
| Cc1cc2c(C(C)C)c(O)c(O)c(C=O)c2c(O)c1-c1c(C)cc2c(C(C)C)c(O)c(O)c(C=O)c2c1O [Compound 4, 2, 2′-Bis(formyl-1,6,7-trihydroxy-5-isopropyl-3-methylnaphthalene)] | – | – | – | – | – | – | – | 3.15 ± 0.043 µM | – | 100% | 11.4 µM |
| CCCCCCCCCCCC1=C(O)C(=O)C=C(O)C1=O [Compound 5, 2,5-dihydroxy-3-undecylcyclohexa-2,5-diene-1,4-dione] | – | – | – | – | – | – | – | 4.5 ± 0.035 µM | – | 100% | 13.5 µM |
| O=C1c2ccccc2C(=O)c2c(O)c(O)cc(O)c21 [Compound 6, 1,2,4-trihydroxyanthracene-9,10-dione] | – | significantly inhibit | – | – | – | – | – | 4.5 ± 0.0091 µM | – | 100% | 11.6 µM |
| O=C(O)CCCCC1CCSS1 (stereo not drawn) [Compound 7, 5-(1,2-Dithiolan-3-yl)-pentanoic acid] | – | – | – | – | – | – | – | 5.06 ± 0.055 µM | – | 90.5% | > 20 µM |
| Cc1c(C(=O)O)c(O)cc2c1C(=O)c1c(O)c([C@@H]3O[C@H](CO)[C@@H](O)[C@H](O)[C@H]3O)c(O)c(O)c1C2=O [Compound 8, carminic acid] | – | – | – | – | – | – | – | 6.8 ± 0.035 µM | – | 85.1% | > 20 µM |
| O=c1oc2c3c4c(cc2c2c1CCC2)CCCN4CCC3 [Compound 9, 2,3,6,7,10,11-Hexahydro-1H,5H-cyclopenta[3,4][1]benzopyrano[6,7,8-ij]quinolizin-12(9H)-one] | – | significantly inhibit | – | – | – | – | – | 9.3 ± 1.59 µM | – | 83.3% | > 20 µM |
| O=c1c(O)c(-c2ccc(O)c(O)c2)oc2c(O)c(O)cc(O)c12 [Compound 10, 2-(3,4-dihydroxyphenyl)-3,5,7,8-tetrahydroxychromen-4-one] | – | significantly inhibit | – | – | – | – | – | 0.27 ± 0.0049 µM | – | 104% | 0.239 µM |
